Patent publication US20120225837A1, “MEDICINAL AGENT FOR DISEASE ASSOCIATED WITH EPSTEIN-BARR VIRUS, AND METHOD FOR SCREENING OF THE MEDICINAL AGENT” (Kyoto University, priority 2007, published 2012)
Where two headings read alike, the source gives them in different places.

Columns and labels:
[1] = system: B95a cells; experiment: MTT cytotoxic effect on EB virus infection cancer cells (B95a); type: cell-based; settings: expression of TK +, MTT assay
Protocol: (§1) The drug sensitivity of 143B/EB virus-TK, 143B/hu-TK, 143B TK(−) cells and EB virus persistent infection cells was determined on the basis of the cytotoxicity of each drug. That is, cells (143B/EB virus-TK, 143B/hu-TK and 143B TK(−) cells: 5×10^4 cells/100 μl; EB virus persistent infection cells: 20×10^4 cells/100 μl) were added to 96-well flat-bottom culture plates containing 100 μl of various concentrations of each drug. After 5 days of culture, the number of surviving cells was determined by MTT [3-(4,5-dimethylthiazol-2-yl)-2,5-diphenyltetrazolium bromide] assay. The cytotoxicity of the test drugs is expressed in terms of a concentration (CC50) at which the cell viability was decreased to 50%.
(§2) The cytotoxic effect of the medicinal agent of the present invention on EB virus infection cancer cells such as NC37 cells was investigated by MTT assay. […] However, neither of them was effective in cells in which EB virus-TK gene had not been expressed.

[2] = system: NC37 cells; experiment: MTT cytotoxic effect on EB virus infection cancer cells (NC37); type: cell-based; settings: NC37, expression of TK +, MTT assay
Protocol: as §1, §2

[3] = system: Namalwa cells; experiment: MTT cytotoxic effect on EB virus infection cancer cells (Namalwa); type: cell-based; settings: expression of TK −, MTT assay
Protocol: as §1, §2

[4] = system: KAI3 cells; experiment: MTT assay on cells with a chronic active EB virus infectious disease; type: cell-based
Protocol: as §1
A chronic active EB virus infectious disease is an unfavorable infectious disease caused by infection of not B cells but natural killer T cells (NKT cells) with an EB virus. As such a chronic infection cell strain, KAI3 cells (Clin. Exp. Immunol. 1999 March; 115(3): 385-92) were purchased from Health Science Research Resources Bank, and the effect of the medicinal agent of the present invention on them was investigated by MTT assay. GCV was used as a control agent.

[5] = MTT cytotoxicity assay, cell having human-TK gene introduced; type: cell-based; settings: human
Description: (§3) At first, a primer was designed on the basis of the data base information of NCBI, followed by extracting DNA from B95a cells (J. Virol. 1990; 64(2): 700-5), and the TK gene of an EB virus was amplified by PCR method and cloned in the multicloning site of an expression plasmid vector pCI-neo (pCI-EB-TKneo). Similarly, human-TK gene was also amplified by PCR method and cloned (pCI-huTKneo). Whether the cloned gene fragment was a desired gene or not was judged by determining the base sequence.
(§4) Then, TK-defect human osteosarcoma cells (143B) was transfected by lipofection method (Proc. Natl. Acad. Sci. USA 1987 November; 84(21): 7413-7) with the plasmid vector capable of expressing EB virus-TK gene or the plasmid vector capable of expressing human-TK gene, namely, pCI-EB-TKneo or pCI-huTKneo, and cells having each plasmid introduced therein were selected by the use of neomycin.
as §1

[6] = system: 143B/EB virus-TK cells; experiment: cells; settings: read-out: CC50 143B/EB Virus-TK
Description: as §3, §4, §1

[7] = system: HS-Sultan cells; experiment: MTT cytotoxic effect on EB virus infection cancer cells (HS-Sultan); type: cell-based; settings: expression of TK −, MTT assay
Protocol: as §1, §2

[8] = system: Raji cells; experiment: MTT cytotoxic effect on EB virus infection cancer cells (Raji); type: cell-based; settings: expression of TK −, MTT assay
Protocol: as §1, §2

[9] = system: EB virus; experiment: Acute infection of B lymphocytes with EB virus, EB virus DNA by real-time PCR; type: cell-based; settings: B lymphocytes of a healthy person, cultured 2 weeks, PBMC#1287 and PBMC#5926, FIG. 2
Protocol: B lymphocytes were separated from the blood of a healthy person. The B lymphocytes were infected with an EB virus in the presence of the medicinal agent of the present invention and cultured for 2 weeks. Thereafter, the infected B cells were recovered and then washed, followed by extraction of DNA. The amount of EB virus DNA in the B lymphocytes was determined by real-time PCR and taken as a virus copy number.

[10] = system: 143B/hu-TK cells; experiment: MTT cytotoxicity assay, cell having human-TK gene introduced; type: cell-based
Description: as §3, §4, §1

[11] = MTT assay, 5 days of culture, read-out: CC50 143B/hu-TK

With `Nc1nc(O)c2ncn(COC(CO)CO)c2n1` [GCV, ganciclovir] the “Cytotoxic effect on EB virus infection cancer cells” value (“Cytotoxic effect” below) [1] was 36 µM, the “Cytotoxic effect” value [2] was 27 µM and the “Cytotoxic effect” value [3] was over 100 µM. The “Effect on cells with a chronic active EB virus infectious disease” value [4] was 105 µM, the CC50 at 5 days [5] was over 100 µM and the CC50 ([6]; Homo sapiens, 143B, 120 h) was over 100 µM. For the same compound, the “Cytotoxic effect” value [7] was over 100 µM and the “Cytotoxic effect” value [8] was 55 µM.

With `Cc1cn([C@@H]2S[C@H](CO)[C@@H](O)[C@@H]2F)c(=O)[nH]c1=O` [Medicinal agent of the invention, 1-(2-deoxy-2-fluoro-4-thio-β-D-arabinofuranosyl)-5-methyluracil] the “Cytotoxic effect” value [1] was 2.2 µM, the “Cytotoxic effect” value [2] was 2.1 µM and the “Cytotoxic effect” value [3] was over 100 µM. The “Effect on cells with a chronic active EB virus infectious disease” value [4] was 4.7 µM, the CC50 at 5 days [5] was over 300 µM and the CC50 ([6]; Homo sapiens, 143B, 120 h) was 0.11 µM. For the same compound, the “Cytotoxic effect” value [7] was over 100 µM, the “Cytotoxic effect” value [8] was 22 µM and the “Amount of EB virus DNA in the B lymphocytes (virus copy number)” value [9] was “reduces the amount of EB virus DNA in the B lymphocytes and inhibits new infection”.

For `Nc1nc2c(ncn2COCCO)c(=O)[nH]1` [ACV, acyclovir], the CC50 at 5 days [5] was over 100 µM.

For `O=c1[nH]c(=O)n([C@H]2C[C@H](O)[C@@H](CO)O2)cc1C=CBr` [BVDU, 5-bromovinyl-2′-deoxyuridine], the CC50 at 5 days [5, 11] was over 300 µM and the CC50 ([6]; Homo sapiens, 143B, 120 h) was 122 µM.

In the case of `O=c1[nH]c(=O)n([C@@H]2O[C@H](CO)[C@@H](O)[C@@H]2O)cc1C=CBr` [BvaraU, 1-β-D-arabinofuranosyl-5-bromovinyluracil], the CC50 at 5 days [5] is reported as over 200 µM and the CC50 ([6]; Homo sapiens, 143B, 120 h) is reported as over 200 µM.

Work on “1-(2-deoxy-2-fluoro-4-thio-β-D-arabinofuranosyl)cytosine [4′-S-FMAC]” yielded a CC50 [10, 11] of 0.04 µM and a CC50 ([6]; MTT assay, 5 days of culture) of 0.066 µM.

Work on `O=c1[nH]c(=O)n([C@H]2C[C@H](O)[C@@H](CO)O2)cc1F` [5FdU, 5-fluoro-2′-deoxyuridine] yielded a CC50 at 5 days [5] of 0.27 µM and a CC50 ([6]; Homo sapiens, 143B, 120 h) of 0.4 µM.

`Cc1cn(C2(C#N)C[C@H](O)[C@@H](CO)O2)c(=O)[nH]c1=O` (stereo partly shown) [1′-CN-dT, 1-(C-cyano-2-deoxy-ribofuranosyl)thymine] gave a CC50 [10] of over 100 µM and a CC50 ([6]; MTT assay, 5 days of culture) of over 100 µM.
